From patent US8497075B2, “Methods of identifying a modulator that inhibits the binding between Epstein-Barr virus induced receptor 2 and cholesterol derived ligands” (Novartis AG, priority 2008, dated 2013)

Experiments:
Experiment in all cases: nuclear hormone receptor reporter gene assay
Format in all cases: cell-based
Details in all cases: concentrations up to 10 μM
[1] = biological target: T1, PPARg (NR1C3) (Homo sapiens, UniProt P37231)
T1 sequence (P37231 1-505): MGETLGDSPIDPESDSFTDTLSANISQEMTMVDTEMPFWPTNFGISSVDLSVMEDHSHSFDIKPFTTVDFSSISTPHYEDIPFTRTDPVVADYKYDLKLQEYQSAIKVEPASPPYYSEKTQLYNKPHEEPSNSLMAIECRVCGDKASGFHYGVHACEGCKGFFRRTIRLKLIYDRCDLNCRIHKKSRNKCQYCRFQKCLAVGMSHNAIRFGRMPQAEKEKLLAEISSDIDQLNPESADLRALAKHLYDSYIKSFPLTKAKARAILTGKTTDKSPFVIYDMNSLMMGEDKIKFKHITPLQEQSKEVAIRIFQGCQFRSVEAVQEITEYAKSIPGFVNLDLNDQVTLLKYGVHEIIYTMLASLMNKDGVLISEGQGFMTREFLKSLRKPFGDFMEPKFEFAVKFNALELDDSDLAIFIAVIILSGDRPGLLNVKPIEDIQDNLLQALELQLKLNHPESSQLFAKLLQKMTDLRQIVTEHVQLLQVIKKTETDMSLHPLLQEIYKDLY
Description: (§1) So far oxysterols have been noted to have various physiological activities namely regulate the expression of genes that participate in both sterol and fat metabolism, serve as substrates for the synthesis of bile acids, and are intermediates in the transfer of sterols from the periphery to the liver (Russell, D. W. (2000). Oxysterol biosynthetic enzymes. Biochim. Biophys. Acta 1529, 126-135). […] This included binding assays for 26 different GPCRs, functional assays of 9 different GPCRs, 40 kinase assays, as well as selected ion channels, proteases, transporter and enzyme assays.

[2] = biological target: T2, RXRa (NR2B1) (Homo sapiens, UniProt P19793)
T2 sequence (P19793 1-462): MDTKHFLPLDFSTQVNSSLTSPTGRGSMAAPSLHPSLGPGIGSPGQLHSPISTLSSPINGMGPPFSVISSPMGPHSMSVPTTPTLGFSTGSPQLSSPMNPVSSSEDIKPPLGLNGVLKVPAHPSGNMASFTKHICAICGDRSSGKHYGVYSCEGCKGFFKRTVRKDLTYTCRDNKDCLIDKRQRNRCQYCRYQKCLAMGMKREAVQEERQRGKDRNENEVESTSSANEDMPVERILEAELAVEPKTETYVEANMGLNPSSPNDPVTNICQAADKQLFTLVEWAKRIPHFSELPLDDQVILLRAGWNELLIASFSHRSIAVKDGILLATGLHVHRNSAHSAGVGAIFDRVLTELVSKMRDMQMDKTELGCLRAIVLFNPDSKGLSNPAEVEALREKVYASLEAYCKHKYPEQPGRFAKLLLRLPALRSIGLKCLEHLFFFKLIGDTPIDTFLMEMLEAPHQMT
Description: as §1

[3] = biological target: T3, SXR (NR112) (Homo sapiens, UniProt O75469)
T3 sequence (O75469 1-434): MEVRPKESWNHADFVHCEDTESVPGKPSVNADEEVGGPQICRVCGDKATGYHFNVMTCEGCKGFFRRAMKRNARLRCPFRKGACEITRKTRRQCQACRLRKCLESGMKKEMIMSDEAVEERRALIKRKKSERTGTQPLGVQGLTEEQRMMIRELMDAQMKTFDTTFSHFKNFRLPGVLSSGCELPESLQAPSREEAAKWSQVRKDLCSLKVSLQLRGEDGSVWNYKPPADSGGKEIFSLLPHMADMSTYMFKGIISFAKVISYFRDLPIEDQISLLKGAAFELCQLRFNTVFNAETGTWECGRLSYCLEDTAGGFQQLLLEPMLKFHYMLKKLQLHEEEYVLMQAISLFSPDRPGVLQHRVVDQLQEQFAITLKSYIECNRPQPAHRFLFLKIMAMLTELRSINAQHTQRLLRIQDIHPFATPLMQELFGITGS
Description: as §1

[4] = biological target: T4, LXRa (NR1H3) (Homo sapiens, UniProt Q13133)
T4 sequence (Q13133 1-447): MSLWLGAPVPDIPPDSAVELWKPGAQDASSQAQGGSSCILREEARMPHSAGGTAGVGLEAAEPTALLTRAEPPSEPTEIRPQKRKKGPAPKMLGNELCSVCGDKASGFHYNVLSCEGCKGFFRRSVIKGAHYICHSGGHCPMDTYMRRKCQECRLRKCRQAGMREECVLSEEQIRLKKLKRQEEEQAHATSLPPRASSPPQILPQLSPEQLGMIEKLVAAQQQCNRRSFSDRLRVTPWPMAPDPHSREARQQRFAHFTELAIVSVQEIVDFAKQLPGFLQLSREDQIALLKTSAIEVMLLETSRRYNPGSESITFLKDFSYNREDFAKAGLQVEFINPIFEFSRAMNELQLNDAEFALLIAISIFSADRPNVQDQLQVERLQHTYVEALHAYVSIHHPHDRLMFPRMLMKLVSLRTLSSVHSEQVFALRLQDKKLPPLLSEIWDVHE
Description: as §1

[5] = biological target: T5, ERa (NR3A1) (Homo sapiens, UniProt P03372)
T5 sequence (P03372 1-595): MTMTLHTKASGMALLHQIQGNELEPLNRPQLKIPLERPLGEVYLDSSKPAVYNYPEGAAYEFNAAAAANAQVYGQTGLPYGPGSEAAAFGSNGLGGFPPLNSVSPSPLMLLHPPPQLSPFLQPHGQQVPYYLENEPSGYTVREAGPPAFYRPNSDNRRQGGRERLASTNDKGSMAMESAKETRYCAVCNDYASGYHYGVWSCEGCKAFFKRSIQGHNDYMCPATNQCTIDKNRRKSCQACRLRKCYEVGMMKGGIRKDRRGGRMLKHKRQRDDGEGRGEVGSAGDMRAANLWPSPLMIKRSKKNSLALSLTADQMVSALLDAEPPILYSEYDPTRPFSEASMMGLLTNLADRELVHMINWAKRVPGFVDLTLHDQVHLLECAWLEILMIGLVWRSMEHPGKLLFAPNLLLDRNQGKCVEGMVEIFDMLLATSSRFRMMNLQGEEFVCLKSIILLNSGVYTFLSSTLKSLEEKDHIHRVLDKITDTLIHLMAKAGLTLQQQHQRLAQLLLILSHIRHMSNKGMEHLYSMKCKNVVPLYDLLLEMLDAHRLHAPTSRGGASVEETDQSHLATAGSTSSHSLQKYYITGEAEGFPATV
Description: as §1

CC(CO)CCC[C@@H](C)[C@H]1CC[C@H]2[C@@H]3[C@H](O)C=C4C[C@@H](O)CC[C@]4(C)[C@H]3CC[C@]12C (stereo partly shown) [7a,27DHC, cholest-5-ene-3b,7a,27-triol]
did not activate: activation of PPARg [1] | activation of RXRa [2] | activation of SXR [3] | activation of LXRa [4] | activation of ERa [5]

C[C@H](CCCC(C)(C)O)[C@H]1CC[C@H]2[C@@H]3[C@H](O)C=C4C[C@@H](O)CC[C@]4(C)[C@H]3CC[C@]12C [7a,25DHC, cholest-5-ene-3b,7a,25-triol]
did not activate: activation of PPARg [1] | activation of RXRa [2] | activation of SXR [3] | activation of LXRa [4] | activation of ERa [5]
